Key:
[1] = tested on: CEA-specific CAR transduced T cells co-cultured with SW480 cells; assay: T cell activation in co-culture of CEA-specific CAR-T cells with SW480 cells; assay type: cell-based, human; conditions: 40 μM ATP, 200 μM ATPγS, 10 μM Diquafosol, 5 μM Denufosol, 24 hours (FIG. 19)
Method: FIG. 19. Effects of P2RY2 agonist and P2RY2 antagonist on T cell activity in T cell-cancer cell co-cultures. T cells transduced with a CEA-specific CAR (CAR-T) were co-cultured with genetically edited SW480 cells for 24 hours in the absence or presence of 40 μM ATP, 200 μM ATPγS, 10 μM Diquafosol, 5 μM Denufosol and 10 μM AR-C 118925XX (AR-C). Control cells: SW480 cells transduced with non-targeting sgRNA and Cas9 (gNT); P2RY2 deficient cells: SW480 cells transduced with P2RY2-targeting sgRNA and Cas9 (gP2RY2-3, gP2RY2-4); B7-H3 (CD276) deficient cells: SW480 cells transduced with B7-H3-targeting sgRNA and Cas9 (gCD276-1); P2RY2 and B7-H3 double deficient cells: SW480 cells transduced with P2RY2-targeting sgRNA, B7-H3-targeting sgRNA, and Cas9 (gCD276-1 gP2RY2-3 DKO, gCD276-1 gP2RY2-4 DKO); P2RY2 overexpression cells: SW480 cells transduced with the open reading frame of P2RY2 (P2RY2-OE); B7-H3 overexpression cells: SW480 cells transduced with the open reading frame of CD276 (CD276-OE). Transduced cancer cells were selected by antibiotics according to antibiotic resistance genes carried by the lentiviral constructs. Flow cytometry analysis of expression of CD25 and CD69 and production of IFNγ within the CD3+CD8+ or CD3+CD4+ cell population is shown (values indicate the percentages of positive cells).
(§1) MART-1 specific T cells were generated as described (Mezzadra et al., Nature 549, 106-110 (2017); Jorritsma et al., Blood 110 (10): 3564-3572. (2007)). To generate CD33-specific chimeric antigen receptor (CAR) T cells and CEA-specific CAR-T cells, a CD33Hul95-CD28Z CAR (described in WO 2019/178382) cassette and MFE-23 (described in US20050147614A1)-CD28Z CAR were separately cloned into retroviral vectors, and the resulting virus was used to transduce T cells as described (Mezzadra et al., Nature 549, 106-110 (2017); Jorritsma et al., Blood 110 (10): 3564-3572. (2007)).
The open reading frames of transcripts of P2RY2 (ENST00000393597.7) or CD276 (ENST00000318443.10), were ordered as a codon optimized gBlock Gene Fragment (Integrated DNA Technologies or Twist Bioscience) and cloned into a lentiviral vector containing a blasticidin selection cassette. Constructs were verified by Sanger sequencing.
(§2) MART1-specific CD8+ T cells and MART1 epitope-expressing cancer cells were mixed at a ratio of 1:16 to 1:1. CD33 CAR-T cells and CD33 expressing THP-1 cells were mixed at a ratio of 1:16 to 1:4. CEA CAR-T cells and CEA expressing SW480 cells were mixed at a ratio of 1:1. Next, cells were centrifugated at 1,600 g for 3 min and incubated at 37° C. and 5% CO2 for 12-72 hours. T cell activation was assessed by surface staining with anti-CD137-BV421 (4-1BB, Biolegend), anti-CD137-PE/Cy7 (4-1BB, Biolegend), anti-CD69-APC/Fire™ 750 (FN50, Biolegend), anti-CD25-AF700 (BC96, Biolegend), anti-CD25-APC (BC96, Biolegend) antibodies and intracellular staining with anti-IL-2-PE/Cy7 (MQ1-17H12, Biolegend), anti-IFN-7-BV421 (4S.B3, Biolegend), anti-TNF-α-BV785 (MAb11, Biolegend), anti-TNF-α-APC (MAb11, Biolegend) antibodies, followed by flow cytometry analysis. For intracellular staining, brefeldin A (Biolegend) was added to the cell culture medium 4 h before cells were harvested. The viability of cancer cells that grow in suspension including THP-1 cells was assessed by flow cytometry-based absolute cell counting using AccuCount beads (Spherotech). For adherent cancer cells including BxPC3, MIA PaCa-2, MDA-MB-231 and MCF7, the cell viability was quantified using CellTiter-Blue Cell Viability Assay (Promega).

[2] = tested on: THP-1 cells; assay: Viability of THP-1 cells in co-culture with CD33-specific CAR-T cells (flow cytometry-based cell counting); set-up: species or system human; conditions: 100 uM Diquafosol, 24 hours, co-culture with CD33-specific CAR-T cells (FIG. 9)
Method: FIG. 8. Effects of P2RY2 antagonist on T cells and cancer cells in T cell-cancer cell co-cultures. T cells transduced with CD33-specific CAR (CAR-T) were co-cultured with genetically edited THP-1 cells in the absence or presence of 5 μM AR-C 118925XX (AR-C) for 6-24 hours. Control cells: THP-1 cells transduced with non-targeting sgRNA and Cas9 (gNT); P2RY2 deficient cells: THP-1 cells transduced with P2RY2-targeting sgRNA and Cas9 (gP2RY2-3, gP2RY2-4); B7-H3 (CD276) deficient cells: THP-1 cells transduced with B7-H3-targeting sgRNA and Cas9 (gCD276-1); P2RY2 and B7-H3 double deficient cells: THP-1 cells transduced with P2RY2-targeting sgRNA, B7-H3-targeting sgRNA, and Cas9 (gCD276-1 gP2RY2-3 DKO, gCD276-1 gP2RY2-4 DKO); P2RY2 overexpression cells: THP-1 cells transduced with the open reading frame of P2RY2 (P2RY2-OE); B7-H3 overexpression cells: THP-1 cells transduced with the open reading frame of CD276 (CD276-OE). […]
FIG. 9. […] Control cells THP-1 cells transduced with non-targeting sgRNA and Cas9 (Ctrl.); P2RY2 overexpression cells: THP-1 cells transduced with the open reading frame of P2RY2 (P2RY2-OE). […]
The open reading frames of transcripts of P2RY2(ENST00000393597.7) or CD276(ENST00000318443.10), were ordered as a codon optimized gBlock Gene Fragment (Integrated DNA Technologies or Twist Bioscience) and cloned into a lentiviral vector containing a blasticidin selection cassette. […]
MART1-specific CD8+ T cells and MART1 epitope-expressing cancer cells were mixed at a ratio of 1:16 to 1:4. […] T cell activation was assessed by surface staining with anti-CD137-BV421 (4-1BB, Biolegend), anti-CD69-APC/Fire™ 750 (FN50, Biolegend), anti-CD25-AF700 (BC96, Biolegend) antibodies and intracellular staining with anti-IL-2-PE/Cy7 (MQ1-17H12, Biolegend), anti-IFN-7-BV421 (4S.B3, Biolegend), anti-TNF-α-BV785 (MAb11, Biolegend) antibodies, followed by flow cytometry analysis. […] The viability of cancer cells that grow in suspension including THP-1 cells was assessed by flow cytometry-based absolute cell counting using AccuCount beads (Spherotech). […]

[3] = tested on: B7-H3; assay: Flow cytometry analysis of B7-H3 expression after ATP or UTP stimulation; assay type: cell-based, human; conditions: for B7-H3 expression: P2RY2 proficient cells (THP-1, FIG. 3) stimulated with ATP or UTP for 24 hours
Source text: FIG. 2. Flow cytometry analysis of B7-H3 expression in wildtype (WT) and P2RY2-deficient bulk THP-1, U937, KBM7, and K562 cells (P2RY2-3 KO and P2RY2-4 KO) in the absence or presence of ATP. Values indicate MFI relative to untreated WT cells.
FIG. 3. Flow cytometry analysis of B7-H3 expression in THP-1 cells in the absence or presence of ATP. Values indicate MFI relative to untreated cells.
THP-1 cells, U937 cells, K562 cells, and KBM7 cells were transduced with a lentiviral vector encoding Cas9 along with a Blasticidin S resistance cassette ([…] deaminase). One day after the transduction, cells were selected with 50 microgram/milliliter Blasticidin S Hydrochloride for […]. Next, surviving cells were transduced with one of the lentiviral vectors encoding sgRNA targeting the sequences 5′-[…]-3′ (SEQ ID NO:6) and 5′-[…]-3′ (SEQ ID NO:7) on the coding strand of P2RY2 gene, along with a puromycin resistance cassette (puromycin N-acetyltransferase). One day after the transduction, cells were selected with 2 microgram/milliliter Puromycin dihydrochloride for 48-96 hours. Selected cells were expanded, subjected to genomic DNA isolation, and analyzed for deleterious editing of the P2RY2 locus by PCR (using primers 5′-[…]-3′ (SEQ ID NO:8) and 5′-[…]-3′ (SEQ ID NO:9)) and Sanger sequencing of the PCR products using primer 5′-[…]-3′ (SEQ ID NO:8) for the sgRNA(5′-[…]-3′, SEQ ID NO:6)) transduced cell and 5′-[…]-3′ (SEQ ID NO:9) for the sgRNA(5′-[…]-3′, SEQ ID NO:7) transduced cell.
The polyclonal cells transduced with Cas9 and sgRNA targeting P2RY2, and wildtype cells were cultured in the absence or presence of ATP or UTP (ligands of P2RY2, Sigma) for 24 hours, stained with anti-B7-H3 antibody and analyzed by flow cytometry.

[4] = tested on: BxPC3 cells; assay: Viability of BxPC3 cells in co-culture with MART-1-specific TCR-T cells (CellTiter-Blue); assay type: cell-based, human; conditions: single agent: 5 μM AR-C, 10 μg/ml atezolizumab or 10 μg/ml durvalumab, 6-24 hours (FIG. 11)
Source text: FIG. 11. […] Untreated cells served as the control.
as §1, with “T” for “T cells and CEA-specific CAR-T”, “was” for “and MFE-23 (described in US20050147614A1)-CD28Z CAR were separately”, “into a” for “into”, “vector,” for “vectors,”
as §2, with “to” for “to 1:1. CD33 CAR-T cells and CD33 expressing THP-1 cells were mixed at a ratio of 1:16 to”, “1:4.” for “1:4. CEA CAR-T cells and CEA expressing SW480 cells were mixed at a ratio of 1:1.”, “Biolegend),” for “Biolegend), anti-CD137-PE/Cy7 (4-1BB, Biolegend),”, “anti-CD25-AF700” for “anti-CD25-AF700 (BC96, Biolegend), anti-CD25-APC”, “anti-TNF-α-BV785” for “anti-TNF-α-BV785 (MAb11, Biolegend), anti-TNF-α-APC”, “BxPC3” for “BxPC3, MIA PaCa-2, MDA-MB-231”

Compound	T cell activation [1]	B7-H3 expression [3]	other results
Nc1ncnc2c1ncn2[C@@H]1O[C@H](COP(=O)(O)OP(=O)(O)OP(O)(O)=S)[C@@H](O)[C@H]1O [Adenosine-5′-(γ-thio)-triphosphate]	repressed	–	–
O=c1ccn([C@@H]2O[C@H](COP(=O)(O)OP(=O)(O)OP(=O)(O)OP(=O)(O)OC[C@H]3O[C@@H](n4ccc(=O)[nH]c4=O)[C@H](O)[C@@H]3O)[C@@H](O)[C@H]2O)c(=O)[nH]1 [Diquafosol]	repressed	–	T cell-mediated cytotoxicity in THP-1 cells [2]: confers resistance
Nc1ncnc2c1ncn2[C@@H]1O[C@H](COP(=O)(O)OP(=O)(O)OP(=O)(O)O)[C@@H](O)[C@H]1O [ATP]	repressed	increased B7-H3 expression in a dose-dependent manner	ATP-induced B7-H3 surface expression upon P2RY2 disruption ([3]; P2RY2-deficient THP-1, U937, KBM7, K562 cells, presence of ATP (FIG. 2)): abrogated
O=c1ccn([C@@H]2O[C@H](COP(=O)(O)OP(=O)(O)OP(=O)(O)O)[C@@H](O)[C@H]2O)c(=O)[nH]1 [UTP]	–	increased B7-H3 expression in a dose-dependent manner	–
Nc1ccn([C@H]2C[C@H](O)[C@@H](COP(=O)(O)OP(=O)(O)OP(=O)(O)OP(=O)(O)OC[C@H]3O[C@@H](n4ccc(=O)[nH]c4=O)[C@H](O)[C@@H]3O)O2)c(=O)n1 [Denufosol]	repressed	–	–
atezolizumab: Blocking antibody of the PD-L1-PD-1 immune checkpoint	–	–	viability of BxPC3 cells [4]: reduced
